Measurements taken from ChEMBL document CHEMBL5729144, “1-cyano-pyrrolidine derivatives as DUB inhibitors” (2022).

These molecules were tested against T1, Ubiquitin carboxyl-terminal hydrolase 30 (Homo sapiens, UniProt Q70CQ3) (assay: A typical 8-point dilution series would be 100, 30, 10, 3, 1, 0.3, 0.1, 0.03 μM final. Reactions were performed in duplicate in black 384 well plates (small volume, Greiner 784076) in a final reaction volume of 21 μl. Either 1 μl of 50% DMSO or diluted compound was added to the plate. USP30 was diluted in reaction buffer (40 mM Tris, pH 7.5, 0.005% Tween 20, 0.5 mg/ml BSA, 5 mM beta-mercaptoethanol) to the equivalent of 0.05 μl/well and 10 μl of diluted USP30 was added to the compound. Enzyme and compound were incubated for 30 min at room temp. Reactions were initiated by the addition of 50 nM of TAMRA labelled peptide linked to ubiquitin via an iso-peptide bond as fluorescence polarisation substrate. Reactions were read immediately after addition of substrate and following a 2 h incubation at room temperature. Readings were performed on a Pherastar Plus (BMG Labtech). λ Excitation 540 nm; λ Emission 590 nm.).
T1 sequence (Q70CQ3 whole entry): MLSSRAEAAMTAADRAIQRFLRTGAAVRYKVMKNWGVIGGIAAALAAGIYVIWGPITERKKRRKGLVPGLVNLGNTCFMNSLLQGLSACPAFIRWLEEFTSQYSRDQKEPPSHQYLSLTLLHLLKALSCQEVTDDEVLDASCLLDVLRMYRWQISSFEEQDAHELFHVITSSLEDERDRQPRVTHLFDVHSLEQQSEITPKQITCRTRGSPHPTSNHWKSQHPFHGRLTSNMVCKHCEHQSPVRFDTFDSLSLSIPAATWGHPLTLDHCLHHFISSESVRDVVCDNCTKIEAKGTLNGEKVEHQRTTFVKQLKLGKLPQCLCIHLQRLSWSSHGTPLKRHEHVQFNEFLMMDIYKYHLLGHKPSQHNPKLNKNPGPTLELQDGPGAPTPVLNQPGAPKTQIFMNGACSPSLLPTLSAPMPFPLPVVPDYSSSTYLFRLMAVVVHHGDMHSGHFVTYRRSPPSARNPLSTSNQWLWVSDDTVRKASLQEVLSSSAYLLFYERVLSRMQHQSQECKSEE

IC50, < 0.1 µM:
N#Cc1cccc(-c2cccc(-c3nc(C4CCCN4C#N)no3)c2)c1F (centres undefined)
N#Cc1ccc(-c2cccc(-c3nc(C4CCCN4C#N)no3)c2)s1 (centres undefined)
N#Cc1cccc(-c2cc(-c3nc([C@@H]4CCCN4C#N)no3)ccn2)c1
N#CN1CCCC1c1noc(-c2cccc(-c3cccc([N+](=O)[O-])c3)c2)n1 (centres undefined)
